Measurements reported in US11427588B2, “Compositions and methods for treating neurodegenerative diseases and cardiomyopathy” (THE REGENTS OF THE UNIVERSITY OF CALIFORNIA, priority 2013, dated 2022).
“Also recorded” adds a separate entry of the source.

Legend:
[1] = system: PINK1^G309D mutant expressing cells; experiment: Parkin S65 phosphorylation after CCCP, phospho specific antibodies after immuno-precipitating Parkin; type: cell-based; details: S65 phosphosite
Experimental: Parkin phosphorylation and mitochondrial translocation assay: HeLa cells were grown in DMEM supplemented with 10% FBS. Log phase cells were plated in 24 well plates with glass coverslips (Mattek) pretreated with fibronectin. Cells were pretreated with 50 μM of the indicated compound, followed by transfection with MitoGFP, mCherry Parkin, and full length PINK1FLAG3 in a 1:4:2 ratio using Fugene 6 (Promega). Fields of cells were selected by expression of MitoGFP (6 fields/well-3 wells/condition) and imaged at five-minute intervals following depolarization with 5 μM CCCP. Quantification was performed according to published protocols^3 and by creation of a Matlab based script.
To test the PINK1-dependency of our findings, we assayed PINK1 activity by using phospho specific antibodies raised against Parkin's PINK1-specific S65 phosphosite^21 after immuno-precipitating Parkin. […] To test whether kinetin stimulated Parkin localization was due to reversible binding of kinetin to PINK1, we treated the cells with fresh medium for 96 hours before performing a new recruitment assay. Similar recruitment rates were observed following the washout (FIG. 2F). […] We followed previously published methods to calculate the percentage of GFP labeled mitochondria with mCherryParkin associated. […]

SH-SY5Y cells = experiment: H2O2 induced apoptosis, Annexin V / PI FACS assay; type: cell-based, human; details: for total amount of apoptotic cells: 50 μM for 96 hours, then 400 μM H2O2 for 24 hours
Experimental: Apoptosis assays and PINK1 shRNA: SH-SY5Y cells (ATCC) were cultured in 1:1 mix of F12K and DMEM supplemented with 20% FBS. PINK1 shRNA lentivirus were produced using a pLKO.1 based shRNA (Sigma) by contransfection with Δ8.9 and pMGD2 vectors in HEK293T cells. SH-SY5Y cells were infected with lentivirus followed by selection with puromycin ([…]). […] Subsequently, cells were stained with Annexin V-FITC and PI and analyzed (FACS Diva) on a FACS LSRII Cytometer ([…]) Apoptosis was calculated as the difference between H2O2 treated samples and the respective control.
Overexpression of PINK1 in neuronal cells (e.g. dopaminergic (DA)) promotes survival in response to oxidative stress and other mitochondrial toxins^7. Before testing the effects of kinetin on apoptosis, we treated DA neurons with 50 μM of either kinetin or adenine and measured cell density after 10 days. […] SH-SY5Y cells were treated with 50 μM kinetin, adenine or DMSO for 96 hours, followed by 400 μM H2O2 treatment for additional 24 hours. Using a cytometry-based FACS assay involving cellular annexin V and propidium iodide staining, we determined the percentage of apoptotic cells after treatment with DMSO, adenine or kinetin.

PINK1−/− mice = experiment: Induced myocardial infarction model; type: in vivo
Experimental: Utilizing mice dosed with kinetin, adenine or vehicle for two weeks, we induced myocardial infarction by ligating the left anterior descending artery at the level of the left atrial appendage (Wang et al., 2006) or sham surgery. Following infarct for 24 or 72 hours, we sacrificed the mice and analyzed the heart by TUNEL staining as cardiomyocytes are susceptible to cell death following infarct. […] These experiments replicate our results in neurons in which kinetin treatment will block apoptosis in response to a number of cellular stressors.

rat hippocampal neurons = experiment: Mitochondrial motility assay in axons; type: cell-based; details: 50 μM
From the text: Mitochondrial motility assay: Primary hippocampal neuronal cultures were co-transfected with mitochondrial targeted GFP (mitoGFP) and mCherry-tagged synaptophysin (mCherrySynaptophysin) to allow for the live identification of mitochondria in axons.
To test if kinetin decreases motility we examined the mobility of axonal mitochondria in hippocampal neurons. Primary hippocampal neuronal cultures were co-transfected with mitoGFP and mCherry-tagged Synaptophysin (mCherrySynaptophysin) to allow for the live identification of mitochondria in axons. […] To test the PINK1 dependency of this process, we treated control mouse C57 (PINK1 wildtype) and PINK1 knockout derived hippocampal neurons with kinetin or 9MK and imaged their mitochondria.

SH-SY5Y = type: in vitro ADME; details: not told
From the text: We included negative control analogs of Kinetin which prevent metabolism.

PINK1wt mice = experiment: Heart health and performance in mice treated from birth; type: in vivo
Experimental: PINK1 expression is protective in several mouse models of heart failure. PINK1wt expression will block pathological hypertrophy, increase heart fractional shortening, and prevent ischemia induced death of heart tissue. To assay the effect of kinetin PINK1 wt or PINK1−/− mice were treated with vehicle, adenine or kinetin from birth following published protocols for administration of kinetin (Hims et al., 2007; Shetty et al., 2011). The mice were sacrificed and whole hearts analyzed, and isolated cardiomyocytes from mice at appropriate time periods (e.g. 2 and 6 months). O2 consumption, mitochondrial integrity (mtDNA abundance, mitochondrial capacity and JC-1 fluorescence) caspase 3/7 cleavage activity and TUNEL staining were measured to assess the health of these tissues. According to published results (Billia et al., 2011; Chen and Dorn, 2013), PINK1 activity is essential for normal 02 consumption and maintenance of mitochondrial integrity. Decreased 02 consumption and mitochondrial integrity in PINK1−/− mice was compared to PINK1wt mice. […] Additionally, caspase 3/7 cleavage activity and TUNEL staining of the left ventricle were increased in PINK1−/− mice derived cardiomyocytes compared to PINK1wt.
In addition to these analyses we analyzed the performance of the heart in whole animals. We utilized the same procedure as above and treated either PINK1wt or PINK1−/− mice with vehicle, adenine or kinetin from birth following published protocols for administration of kinetin (Hims et al., 2007; Shetty et al., 2011). […] These characteristics of pathological hypertrophy indicate heart failure in the PINK1−/− mice will not increase as dramatically in PINK1wt mice (Billia et al., 2011). […] These experiments indicate that amplification of PINK1 activity by treatment with kinetin can block age-induced loss in heart function.

Compound: Nc1ncnc2nc[nH]c12 [adenine, reference compound]
- phosphorylation levels of Parkin [1]: not
- total amount of apoptotic cells (SH-SY5Y cells): no significant change
- scar size and level of collagen deposition (PINK1−/− mice): not

Compound: c1coc(CNc2ncnc3[nH]cnc23)c1 [kinetin]
- phosphorylation levels of Parkin [1]: significantly increased; also recorded: Robust increase
- mitochondrial movement / motility (rat hippocampal neurons; 48 hours pre-treatment): potently and specifically inhibited
- velocity of mitochondria that remain in motion (rat hippocampal neurons; 48 hours, retrograde direction): slows; also recorded: decrease in the velocity of mitochondria in the retrograde direction
- total amount of apoptotic cells (SH-SY5Y cells): significant decrease; also recorded: blocks apoptosis
- total amount of apoptotic cells (SH-SY5Y cells; listed as Kinetin): blocks apoptosis
- total number of apoptotic cells (SH-SY5Y cells; 48 hours of treatment, then 24 hours of 400 uM hydrogen peroxide): Decrease in the total number of apoptotic cells
- membrane impermeable metabolite after incubation (SH-SY5Y): presence of a membrane impermeable metabolite
- age induced pathological hypertrophy (PINK1wt mice; HBW ratio, cross sectional area, extracellular matrix): reduces this age induced pathological hypertrophy
- fractional shortening (PINK1wt mice; six month old, echocardiography): still higher fractional shortening
- O2 consumption and mitochondrial integrity (PINK1wt mice; treated from birth): Improved values
- TUNEL staining of the left ventricle (PINK1wt mice; treated from birth): further reduced TUNEL staining
- scar size and level of collagen deposition (PINK1−/− mice): not
